Patent publication US20240180888A1, “C5AR1 INHIBITORS FOR TREATING […] REACTIONS TO TAXANES” (Dompe' Farmaceutici SPA, priority 2021, published 2024)
Where two headings read alike, the source gives them in different places.

T1: complement component 5a receptor 1 (C5aR1) (Homo sapiens, UniProt P21730)
T1 construct: purchased OriGene TP303784
T1 sequence (P21730 1-350): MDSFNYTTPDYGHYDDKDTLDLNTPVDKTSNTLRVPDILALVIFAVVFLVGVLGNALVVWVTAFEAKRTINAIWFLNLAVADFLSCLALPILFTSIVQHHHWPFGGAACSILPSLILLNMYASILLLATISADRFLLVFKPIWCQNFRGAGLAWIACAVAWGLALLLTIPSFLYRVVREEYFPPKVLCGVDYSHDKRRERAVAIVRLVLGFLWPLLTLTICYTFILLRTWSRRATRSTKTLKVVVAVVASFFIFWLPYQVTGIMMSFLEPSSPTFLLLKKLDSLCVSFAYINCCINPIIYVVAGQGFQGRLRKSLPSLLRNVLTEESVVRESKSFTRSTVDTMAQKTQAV

B1: C5a: anaphylatoxin, pro-inflammatory polypeptide, the natural ligand of the receptor C5aR1 (protein, UniProt P01031 678-751, looked up)
C5a anaphylatoxin: TLQKKIEEIAAKYKHSVVKKCCYDGACVNNDETCEQRAARISLGPRCIKAFTECCVVASQLRANISHKDMQLGR
modifications: C5a anaphylatoxin
notes: anaphylatoxin, pro-inflammatory polypeptide, the natural ligand of the receptor C5aR1

Tests used:
[1] = biological target: T2, complement component 5a receptor 2 (C5AR2) (Homo sapiens, UniProt Q9P296); assay: BIAcore SPR binding to C5aR2 immobilised on sensorchip CM5 via His-tag
T2 construct: purchased CUSABIO CSB-CF868390HU
T2 sequence (Q9P296 whole entry): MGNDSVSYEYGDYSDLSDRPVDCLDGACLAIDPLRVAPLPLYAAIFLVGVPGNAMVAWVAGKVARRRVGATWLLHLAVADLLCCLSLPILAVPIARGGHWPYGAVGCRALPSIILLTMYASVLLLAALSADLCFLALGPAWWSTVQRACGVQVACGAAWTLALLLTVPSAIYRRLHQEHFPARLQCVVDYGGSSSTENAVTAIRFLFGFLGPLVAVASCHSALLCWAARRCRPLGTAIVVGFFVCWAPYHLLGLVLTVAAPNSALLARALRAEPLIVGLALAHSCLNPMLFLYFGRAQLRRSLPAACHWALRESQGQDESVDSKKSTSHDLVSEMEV
Description: (§1) BIAcore technology was used to analyze the interaction between Paclitaxel and complement component 5a receptor 1 (C5aR1) (Example 1), complement component 5a receptor 2 (C5AR2) (Example 2) or complement component 5a (Example 3).
(§2) The BIAcore systems exploit the phenomenon of Surface Plasmon Resonance (SPR) to monitor interactions between molecules in real time. Briefly, SPR phenomenon occurs in thin conducting films at an interface between media of different refractive index. In BIAcore systems, the media are the glass of the sensorchip and the sample solution, and the conducting film is a thin layer of gold on the sensorchip surface. BIAcore monitors the interaction between two molecules, one attached to the sensor surface, called ligand, and the other one free in solution, and called analyte.
A policlonal anti-His antibody (ab137839, Abcam) was immobilized on a sensorchip CM5 (#29149604, Cytiva). In details, the antibody was diluted at a concentration of 50 μg/ml in 10 mM acetate buffer at pH 4.0, and injected over the surface of the sensorchip. Activation and deactivation of sensorchip were performed as described in Example 1a). […] Once the antibody was immobilized, the receptor was captured in an oriented way on the surface of the sensorchip. In particular, C5AR2-His (CSB-CF868390HU, CUSABIO) at a concentration of 100 μg/ml was injected onto the sensorchip with a flow rate of 5 microl/min in Running Buffer.
5 μM C5a (A144, Complement Technologies) was injected on C5AR2 surface of the sensorchip prepared in Example 2a).
Paclitaxel was injected on the C5aR2 surface of the sensorchip prepared in Example 2a) at different concentrations (10, 100 and 200 microM) in Running Buffer, and the amount of obtained RU was evaluated.

[2] = biological target: T1, complement component 5a receptor 1 (C5aR1); assay: BIAcore SPR binding to C5aR1 immobilised on sensorchip CM5 via c-Myc-tag
Description: as §1, §2
An anti-c-Myc antibody (9E10, sc-40, Santa Cruz Technology) was immobilized on a sensorchip CM5 (#29149604, Cytiva). In details, the antibody was diluted at a concentration of 50 μg/ml in 10 mM acetate buffer at pH 4.5, and injected over the surface of the sensorchip. In details, the dextran matrix on the sensorchip surface was first activated with a mixture of […] (EDC) and N-hydroxysuccinimide (NHS) to give reactive succinimide esters. Anti-Myc antibodies were then passed over the surface and the esters reacted spontaneously with uncharged amino groups to covalently link the ligand to the dextran. Then, the surface was deactivated by ethanolamine-HCl.
Once the antibody was immobilized, the receptor was captured on the surface of the sensorchip. This procedure allowed the immobilization of the ligand of interest in an oriented way. In particular, C5AR1-cMyc (TP303784, OriGene) at a concentration of 20 μg/ml in Running Buffer (50 mM HEPES buffer, pH 7.0 containing 0.01% CHS, 0.1% CHAPS, and 0.33 mM of lipids) was injected onto the sensorchip prepared above with a flow rate of 5 μI/min.
In details, 5 μM C5a (A144, Complement Technologies) in Running Buffer was injected on C5aR1 surface of sensorchip prepared in Example 1a).
To first evaluate a direct binding of Paclitaxel and C5aR1, the compound was injected on the C5aR1 surface of the sensorchip prepared in Example 1a) at a concentration of 300 μM in Running Buffer.
Running Buffer at different concentrations (from 4.06 to 37.5 μM), injected on the sensorchip for 4 minutes and allowed to dissociate for 5 minutes, flowing Running Buffer without Paclitaxel. In this way, the kinetic constant was evaluated as a function of time.
Also, the affinity value at equilibrium of Paclitaxel/Myc-05aR1 interaction was determined by measuring the steady-state binding levels, through a Scatchard analysis of the RU values at equilibrium.

[3] = tested on: human (THP-1) macrophages; assay: Proteome profiler cytokine release assay in human macrophages; format: cell-based; conditions: human; 10 nM, 24 h
Procedure: After 24 hours, cells were treated with C5a (diluted in medium) (10 nM, R&D, USA), Paclitaxel (diluted in medium) (10 nM, Sigma, USA) in the absence and in the presence of the C5a inhibitor DF3966A (10 μM), and anti C5aR Ab (BioLegend, CA, USA; 50 nM) or Avacopan (10 μM) for 24 hours, then the media was replaced with culture media (5 ml) for 24 h and then collected.
Conditioned media were centrifugated to remove particulates and assayed immediately. […] The reagents were prepared following manufacturer's protocols (R&D, USA). Briefly, the membranes were incubated with Array Buffer 6 for 1 hour on a rocking platform shaker. The samples were prepared by adding up to 1 ml of Array Buffer 4 in two separated tubes and then 15 microl of reconstituted mouse cytokine detection antibody cocktail (>40 mouse cytokines) to each prepared sample and incubated 1 hour. Then, the Array Buffer 6 was aspirated and replaced with the sample/antibody mixtures and incubated at 4° C. overnight. The following day, membranes were washed 3 times and Streptavidin-HRP (1:2000) was incubated for 30 minutes at room temperature on a rocking platform shaker. The membranes were washed again, and 1 ml of prepared Chemi Reagent mix was placed onto each membrane. Multiple exposure times were acquired using UVITEC digital analyzer (Alliance, Cambridge, UK).
The positive signals seen in the developed membranes can be identified by placing the transparency overlay template on the array image and aligning it with pairs of reference spots in the three corners of each array (see FIG. 10). […] Pixel densities (average signals of pair of duplicates which represent each cytokine) were analyzed by ImageJ and the average background was subtracted from each spot.
In details, the profiling of cytokines released (>40 cytokines) from RAW 264.7 and human macrophages challenged with paclitaxel (Sigma-Aldrich; 10 nM) or C5a (R&D Systems, Inc. MN, USA; 10 nM) for 24 h using a proteome profiler assay. […] The experimental assay is explained in example 4.
For the human macrophages, human XL Cytokine Array kit #Ary022B was used, while for murine macrophages mouse cytokine Array Panel A #Ary006 was used (R&D systems, USA).

Molecule	binding to immobilised C5aR2 ([1]; 10, 100 and 200 microM in Running Buffer)	binding to immobilised C5aR2 (legend of FIG. 8) ([1]; from 4.06 μM to 37.5 μM)	Paclitaxel bound to immobilised C5aR1, resonance units ([2]; 300 μM in Running Buffer)	Kd ([2]; 4.06 to 37.5 μM, 4 minutes injection, 5 minutes dissociation, read-out: Kd value (kinetic evaluation))	Kd ([2]; steady-state RU as a function of analyte concentration, read-out: affinity constant at equilibrium (steady-state binding levels, Scatchard analysis))	proteome profile of cytokines released [3]	binding to immobilised C5aR2 ([1]; 5 μM)	binding to immobilised C5aR1 ([2]; 5 μM in Running Buffer)
CC(=O)O[C@H]1C(=O)[C@@]2(C)[C@H]([C@H](OC(=O)c3ccccc3)[C@]3(O)C[C@H](OC(=O)[C@H](O)[C@@H](NC(=O)c4ccccc4)c4ccccc4)C(C)=C1C3(C)C)[C@]1(OC(C)=O)CO[C@@H]1C[C@@H]2O [Paclitaxel]	not able to bind	not able to bind	300 RU	670 nM	525 nM	resembled that of typical anaphylaxis		
B1						resembled that of typical anaphylaxis	is able to bind	can bind
